Calls of active or inactive are those of the source. No cut-off for these calls is given here.

For this experiment, the target named is T1, UDP-3-O-acyl-N-acetylglucosamine deacetylase (Pseudomonas aeruginosa (strain ATCC 15692 / PAO1 / 1C / PRS 101 / LMG12228)) (UniProt P47205).
T1 sequence (whole entry): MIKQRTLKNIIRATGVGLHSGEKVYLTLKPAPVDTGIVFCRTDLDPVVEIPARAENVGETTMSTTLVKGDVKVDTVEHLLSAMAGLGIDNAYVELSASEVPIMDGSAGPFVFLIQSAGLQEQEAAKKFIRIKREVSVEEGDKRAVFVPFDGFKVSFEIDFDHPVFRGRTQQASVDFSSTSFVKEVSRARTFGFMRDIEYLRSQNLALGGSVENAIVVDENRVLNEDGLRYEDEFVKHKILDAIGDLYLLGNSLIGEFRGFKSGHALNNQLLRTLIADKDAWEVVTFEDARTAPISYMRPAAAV
Briefly: Inhibition at Pseudomonas aeruginosa deacetylase LpxC receptor.

As to `O=C(NO)C1COC(c2cccc(C(F)(F)F)c2)=N1` (stereo unspecified), the result was Active.

These data come from ChEMBL document CHEMBL1144589, “Pharmacophoric features of Pseudomonas aeruginosa deacetylase LpxC inhibitors: an electronic and structural analysis” (Bioorg Med Chem Lett, 2007).
